Where two headings read alike, the source gives them in different places.
Experiments:
[1] = system: erythroid cells isolated from the bone marrow of laboratory mice males; settings: feed with succinic acid 20 mg/kg body wt., not irradiated
Procedure: The test for genotoxicity was performed on young laboratory mice males (18-20 g; 6 animals in each group). […] The control animals were given water.

[2] = system: patients with cardiac insufficiency; settings: for patients of functional class I, day 30 / patients of functional class II, day 30 / patients of functional class III, day 30 / patients of functional class IV, day 30 / patients of functional class I, day 60 / patients of functional class II, day 60 / patients of functional class III, day 60 / patients of functional class IV, day 60 / patients of functional class I, day 90 / patients of functional class II, day 90 / patients of functional class III, day 90 / patients of functional class IV, day 90: 100 mg twice per day with standard therapy; for patients of functional class I, day 30 / patients of functional class II, day 30 / patients of functional class III, day 30 / patients of functional class IV, day 30: after 30 days; for patients of functional class I, day 60 / patients of functional class II, day 60 / patients of functional class III, day 60 / patients of functional class IV, day 60: after 60 days; for patients of functional class I, day 90 / patients of functional class II, day 90 / patients of functional class III, day 90 / patients of functional class IV, day 90: after 90 days; for patients of functional class I, day 0 / patients of functional class II, day 0 / patients of functional class III, day 0 / patients of functional class IV, day 0: with standard therapy, before treatment
Procedure: The test for cardiotonic activity of product samples was performed by measuring the dynamics of alteration of the functional class of cardiac failure. The functional class can be determined quite accurately by analyzing the everyday life activities according to a specific activity scale. The authors of this technique suppose that the criteria developed by NYHA (New York Heart Association) cannot provide accurate determination of functional class, since widely used terms, such as “everyday physical activity”, “sub-everyday activity” are not specific. On the basis of multiple tests, in which patients exercised on a treadmill, the authors calculated a scale of metabolic expenses for each kind of life activity (see Goldman L., Hashimoto B., Cook F. et al., Comparative reproducibility and validity of systems for assessing cardiovascular functional class: advantages of a new specific activity scale (1981) Circulation 64 (6):1227-34). This inquiry is designed to be used by medical personnel, interviewing a patient. After calculating the sum of possible energy expenses, the functional class of the patient is determined according to the summary criteria of the specific activity scale (Table 6).
In the tests, the patient groups were formed so that the people of the same functional class were equally distributed among different groups. Severe patients (of IV functional class; those having oncological diseases or suffered myocardial infarction/stroke to the brain 60 days or less before) were not admitted to the tests. The distribution of patients among groups was governed by a random number generator. The tests were carried out by the following protocol. Each patient took 100 mg of the preparation twice per day (in the morning and after lunch) during 3 months—against the background of a standard therapy administered by a physician. […] All the samples and placebo were encoded before sending into the clinic, so none of those involved into the tests (patients, physicians, medical personnel and the manager of tests) was aware of the nature of samples.
The functional class of patients was determined several times: at the beginning of tests (before the formation of test groups) and after 30, 60 and 90 days of treatment with the test samples. The estimation was performed on the basis of the activity scale (Table 7).

Wistar rat males = settings: for Eosinophils, 6 h after / Lymphocytes, 6 h after / Number of leukocytes in 1 μl of blood, 6 h after / Segmentated cells, 6 h after: 6 h after immobilization; for Eosinophils, 6 h after / Lymphocytes, 6 h after / Number of leukocytes in 1 μl of blood, 6 h after / Segmentated cells, 6 h after / Eosinophils, before / Lymphocytes, before / Number of leukocytes in 1 μl of blood, before / Segmentated cells, before: 1.5 ml of 1% succinic acid perorally 10 min prior; for Eosinophils, before / Lymphocytes, before / Number of leukocytes in 1 μl of blood, before / Segmentated cells, before: at the moment of immobilization
Procedure: Examples, illustrating the method invented, are presented below. […] SA is tested on rats endured an immobilization stress; the parameter tested is lymphocytic composition of blood, which is determined before and after stress in a blood smear taken from the caudal vein. […] A detailed description of the testing technique is given in Example 13.
The animals were fixed while lying flat on their back, with their legs secured. […] Blood was taken from the caudal vein: 10 μl for counting blood corpuscles and 20 μl for preparing a smear with its subsequent staining by Romanovsky-Giemsa).
First group: 10 min prior immobilization, the animals were injected (perorally, with the help of a stomach pump) with 1.5 ml of 1% starch solution. […] Blood was taken from the caudal vein at the moment of immobilization and 6 hours later, and stained blood smears were prepared to calculate the leukogram.

white rat females = settings: female, in vivo, 5000 mg/kg; for Total died: 14 days
[3] = system: erythroid cells isolated from the bone marrow of gamma-irradiated laboratory mice males; assay: Radioprotective properties (micronucleus test after gamma irradiation); settings: for Number of micronuclei per 2000 cells (radioprotective properties): mice irradiated with gamma rays 1.3 Gy, then fed 48 h succinic acid 20 mg/kg body wt., critical value 16±2

O=C(O)CCC(=O)O [Example 8, succinic acid]
Number of micronuclei per 2000 cells (genotoxicity) ([1]; norm 5.0±1.0): 5.0 ± 0.8
patients of functional class I, day 30 [2]: 10
patients of functional class II, day 30 [2]: 6
patients of functional class III, day 30 [2]: 4
patients of functional class IV, day 30 [2]: 0
patients of functional class I, day 60 [2]: 11
patients of functional class II, day 60 [2]: 6
patients of functional class III, day 60 [2]: 3
patients of functional class IV, day 60 [2]: 0
patients of functional class I, day 90 [2]: 14
patients of functional class II, day 90 [2]: 5
patients of functional class III, day 90 [2]: 1
patients of functional class IV, day 90 [2]: 0
patients of functional class I, day 0 ([2]; 100 mg twice per day, 3 months): 8
patients of functional class II, day 0 ([2]; 100 mg twice per day, 3 months): 7
patients of functional class III, day 0 ([2]; 100 mg twice per day, 3 months): 5
patients of functional class IV, day 0 ([2]; 100 mg twice per day, 3 months): 0
Eosinophils, 6 h after (Wistar rat males; listed as Ex. 8): 1.5 ± 3%
Lymphocytes, 6 h after (Wistar rat males; listed as Ex. 8): 75 ± 4%
Number of leukocytes in 1 μl of blood, 6 h after (Wistar rat males; listed as Ex. 8): 7000
Segmentated cells, 6 h after (Wistar rat males; listed as Ex. 8): 24 ± 2%
Eosinophils, before (Wistar rat males; listed as Ex. 8): 2 ± 6%
Lymphocytes, before (Wistar rat males; listed as Ex. 8): 77 ± 5%
Number of leukocytes in 1 μl of blood, before (Wistar rat males; listed as Ex. 8): 5900
Segmentated cells, before (Wistar rat males; listed as Ex. 8): 21 ± 4%
died, 12 day (white rat females; 12 day): 1
died, 13 day (white rat females): 1
died, 14 day (white rat females): 1
Total died (white rat females): 3
Number of micronuclei per 2000 cells (radioprotective properties) [3]: 12.0 ± 1.5

O=C(O)CCC(=O)O [Example 9, succinic acid]
Number of micronuclei per 2000 cells (genotoxicity) ([1]; norm 5.0±1.0): 5.0 ± 1.0
patients of functional class I, day 30 [2]: 10
patients of functional class II, day 30 [2]: 6
patients of functional class III, day 30 [2]: 4
patients of functional class IV, day 30 [2]: 0
patients of functional class I, day 60 [2]: 11
patients of functional class II, day 60 [2]: 6
patients of functional class III, day 60 [2]: 3
patients of functional class IV, day 60 [2]: 0
patients of functional class I, day 90 [2]: 14
patients of functional class II, day 90 [2]: 5
patients of functional class III, day 90 [2]: 1
patients of functional class IV, day 90 [2]: 0
patients of functional class I, day 0 ([2]; 100 mg twice per day, 3 months): 8
patients of functional class II, day 0 ([2]; 100 mg twice per day, 3 months): 7
patients of functional class III, day 0 ([2]; 100 mg twice per day, 3 months): 5
patients of functional class IV, day 0 ([2]; 100 mg twice per day, 3 months): 0
Eosinophils, 6 h after (Wistar rat males; listed as Ex. 9): 1.5 ± 2%
Lymphocytes, 6 h after (Wistar rat males; listed as Ex. 9): 74 ± 6%
Number of leukocytes in 1 μl of blood, 6 h after (Wistar rat males; listed as Ex. 9): 7000
Segmentated cells, 6 h after (Wistar rat males; listed as Ex. 9): 25 ± 6%
Eosinophils, before (Wistar rat males; listed as Ex. 9): 2 ± 4%
Lymphocytes, before (Wistar rat males; listed as Ex. 9): 76 ± 6%
Number of leukocytes in 1 μl of blood, before (Wistar rat males; listed as Ex. 9): 5800
Segmentated cells, before (Wistar rat males; listed as Ex. 9): 22 ± 3%
died, 13 day (white rat females): 2
died, 14 day (white rat females): 1
Total died (white rat females): 3
Number of micronuclei per 2000 cells (radioprotective properties) [3]: 11.0 ± 1.6

O=C(O)CCC(=O)O [Example 10, succinic acid]
Number of micronuclei per 2000 cells (genotoxicity) ([1]; norm 5.0±1.0): 5.0 ± 1.0
patients of functional class I, day 30 [2]: 10
patients of functional class II, day 30 [2]: 5
patients of functional class III, day 30 [2]: 4
patients of functional class IV, day 30 [2]: 0
patients of functional class I, day 60 [2]: 10
patients of functional class II, day 60 [2]: 7
patients of functional class III, day 60 [2]: 3
patients of functional class IV, day 60 [2]: 0
patients of functional class I, day 90 [2]: 14
patients of functional class II, day 90 [2]: 5
patients of functional class III, day 90 [2]: 1
patients of functional class IV, day 90 [2]: 0
patients of functional class I, day 0 ([2]; 100 mg twice per day, 3 months): 8
patients of functional class II, day 0 ([2]; 100 mg twice per day, 3 months): 7
patients of functional class III, day 0 ([2]; 100 mg twice per day, 3 months): 5
patients of functional class IV, day 0 ([2]; 100 mg twice per day, 3 months): 0
Eosinophils, 6 h after (Wistar rat males; listed as Ex. 10): 1.5 ± 2%
Lymphocytes, 6 h after (Wistar rat males; listed as Ex. 10): 74 ± 4%
Number of leukocytes in 1 μl of blood, 6 h after (Wistar rat males; listed as Ex. 10): 7000
Segmentated cells, 6 h after (Wistar rat males; listed as Ex. 10): 24 ± 4%
Eosinophils, before (Wistar rat males; listed as Ex. 10): 2 ± 2%
Lymphocytes, before (Wistar rat males; listed as Ex. 10): 76 ± 5%
Number of leukocytes in 1 μl of blood, before (Wistar rat males; listed as Ex. 10): 5800
Segmentated cells, before (Wistar rat males; listed as Ex. 10): 22 ± 3%
died, 13 day (white rat females): 1
died, 14 day (white rat females): 2
Total died (white rat females): 3
Number of micronuclei per 2000 cells (radioprotective properties) [3]: 12.5 ± 1.0

O=C(O)CCC(=O)O [“Natural” SA, succinic acid, reference compound]
Number of micronuclei per 2000 cells (genotoxicity) ([1]; norm 5.0±1.0, listed as “Natural acid”): 5.0 ± 1.0
patients of functional class I, day 30 [2]: 10
patients of functional class II, day 30 [2]: 6
patients of functional class III, day 30 [2]: 4
patients of functional class IV, day 30 [2]: 0
patients of functional class I, day 60 [2]: 9
patients of functional class II, day 60 [2]: 8
patients of functional class III, day 60 [2]: 3
patients of functional class IV, day 60 [2]: 0
patients of functional class I, day 90 [2]: 14
patients of functional class II, day 90 [2]: 5
patients of functional class III, day 90 [2]: 1
patients of functional class IV, day 90 [2]: 0
patients of functional class I, day 0 ([2]; 100 mg twice per day, 3 months): 8
patients of functional class II, day 0 ([2]; 100 mg twice per day, 3 months): 7
patients of functional class III, day 0 ([2]; 100 mg twice per day, 3 months): 4
patients of functional class IV, day 0 ([2]; 100 mg twice per day, 3 months): 0
cardiotonic properties / dynamics of functional class, conclusion in words ([2]; 100 mg twice per day, 3 months, listed as “natural” acid): high cardiotonic properties
adaptogenic properties, conclusion in words (Wistar rat males; 6-hour immobilization stress, Wistar rats, listed as “natural” acid): evident adaptogens
Eosinophils, 6 h after (Wistar rat males): 1.5 ± 3%
Lymphocytes, 6 h after (Wistar rat males): 74 ± 4%
Number of leukocytes in 1 μl of blood, 6 h after (Wistar rat males): 7100
Segmentated cells, 6 h after (Wistar rat males): 25 ± 3%
Eosinophils, before (Wistar rat males): 2 ± 4%
Lymphocytes, before (Wistar rat males): 75 ± 4%
Number of leukocytes in 1 μl of blood, before (Wistar rat males): 5900
Segmentated cells, before (Wistar rat males): 23 ± 2%
died, 13 day (white rat females): 1
died, 14 day (white rat females): 2
Total died (white rat females): 3
radioprotective effect, conclusion in words ([3]; gamma rays 1.3 Gy, 20 mg/kg body wt., 48 h, 20 mg/kg): evident radioprotectors
Number of micronuclei per 2000 cells (radioprotective properties) ([3]; listed as “Natural acid”): 12.0 ± 1.6

Source: US8546611B2 (priority 2008, dated 2013)
